{"source": "patent US20080160520A1", "about": "“Methods and Composition for Diagnosing and Treating Cancer” (priority 2006, published 2008)", "assay_type_in_all_cases": "cell-based, S. cerevisiae", "key": {"aneuploid yeast strains": {"tested_on": "aneuploid yeast strains", "settings": "for colony formation of aneuploids on medium containing the agent: compared with wild-type cells, FIG. 13B, E, I", "description": "To determine whether the synthesis of proteins from the additional chromosomes and their presence in the cell represents an increased burden on the cell's protein production machinery, the ability of aneuploid strains to grow under conditions that interfere with transcription, protein synthesis and protein folding was examined."}, "YAC-bearing strains": {"tested_on": "YAC-bearing strains", "settings": "YACs with human or mouse DNA inserts; FIG. 5B", "method": "Strains (from the top): A11311, A16850, A17392, A17393, A17394, A13628, A17396, A17397, A16851.\nThe phenotypes shared by aneuploids might result from the mere presence of additional DNA or from the RNAs and proteins synthesized from these chromosomes. Thus, the effects of seven yeast artificial chromosomes (YACs) containing human or mouse DNA inserts ranging from approximately 350 kb to 1.6 MB in size were tested (Table 3).\nThe other phenotypes observed in aneuploids were not shared by the YAC-bearing strains. […] Progression through other cell cycle stages was not affected either as judged by DNA content analysis (FIGS. 5, C and D)."}, "[1]": {"tested_on": "cdc28-4 and cdc23-1 mutants", "assay": "Sensitivity of slow-proliferating cdc28-4 and cdc23-1 mutants to protein synthesis inhibitors", "settings": "mutants severely impaired in cell division even at 23° C.; FIGS. 4C and D"}}, "note": "Where two headings read alike, the source gives them in different places. Where a SMILES comes first, the peptide text is derived from it. The star is where a group is joined. Cbz = O=C(OCc1ccccc1)*"}
{"smiles": "OO", "note": "[hydrogen peroxide]", "values": [{"measurement": "proliferation of aneuploids in the presence of the agent", "setting": "aneuploid yeast strains; 1 mM, FIG. 13D, G", "value": "None of the aneuploids showed altered proliferation"}]}
{"smiles": "O=c1cn[nH]c(=O)[nH]1", "note": "[6-Azauracil]", "values": [{"measurement": "colony formation of aneuploids on medium containing the agent", "setting": "aneuploid yeast strains", "value": "formed colonies as well as wild-type cells"}]}
{"smiles": "C[C@@H]1C[C@@H]([C@H](O)CC2CC(=O)NC(=O)C2)C(=O)[C@@H](C)C1", "note": "[cycloheximide]", "values": [{"measurement": "proliferation of aneuploid strains", "setting": "aneuploid yeast strains; 0.05 μg/ml, FIG. 4C", "value": "proliferation of most was impaired"}, {"measurement": "proliferation of all aneuploid strains", "setting": "aneuploid yeast strains; 0.1 μg/ml and 0.2 μg/ml, FIG. 4C", "value": "decreased proliferation"}, {"measurement": "proliferation of all aneuploid strains", "setting": "aneuploid yeast strains; all aneuploid strains, FIG. 4C", "value": "hampered"}, {"measurement": "sensitivity of YAC-bearing strains", "setting": "YAC-bearing strains", "value": "did not exhibit increased sensitivity"}, {"measurement": "sensitivity of cdc28-4 and cdc23-1 mutants", "setting": "[1]", "value": "did not exhibit increased sensitivity"}]}
{"smiles": "CC[C@H]1/C=C/C=C/C[C@@H](C)[C@H](O)[C@@](C)(O)C(=O)[C@@H](C)[C@H](O)[C@@H](C)C(=O)[C@@H](C)[C@H](O)[C@@H](C)/C=C/C(=O)O[C@@H]2[C@H](C)[C@H](CC1)O[C@]1(CC[C@H](C)[C@H](C[C@@H](C)O)O1)[C@H]2C", "note": "[oligomycin]", "values": [{"measurement": "sensitivity of aneuploid strains", "setting": "aneuploid yeast strains; increasing concentrations, FIG. 13I", "value": "did not exhibit increased sensitivity"}]}
{"smiles": "O=C(O)C1CCN1", "note": "(stereo not drawn) [azetidine 2-carboxylic acid]", "values": [{"measurement": "colony formation of aneuploids on medium containing the agent", "setting": "aneuploid yeast strains", "value": "formed colonies as well as wild-type cells"}]}
{"smiles": "CC(=O)Nc1c2sscc-2n(C)c1=O", "note": "[Thiolutin]", "values": [{"measurement": "proliferation of aneuploids", "setting": "aneuploid yeast strains; high concentration 20 μg/ml, all aneuploids except disomes I, X, XIV, FIG. 4B", "value": "inhibited"}, {"measurement": "proliferation of aneuploids", "setting": "aneuploid yeast strains; low concentrations 5 μg/ml to 15 μg/ml, FIG. 13H", "value": "proliferation of only a subset of strains was impaired"}, {"measurement": "sensitivity of YAC-bearing strains", "setting": "YAC-bearing strains", "value": "did not exhibit increased sensitivity"}]}
{"smiles": "NC(=O)NO", "note": "[hydroxyurea]", "values": [{"measurement": "colony formation of aneuploids on medium containing the agent", "setting": "aneuploid yeast strains", "value": "formed colonies as well as wild-type cells"}]}
{"smiles": "CCCCNC(=O)n1c(NC(=O)OC)nc2ccccc21", "note": "[benomyl]", "values": [{"measurement": "sensitivity of aneuploid strains", "setting": "aneuploid yeast strains; 10 and 20 μg/ml, FIG. 13F", "value": "About half of the aneuploid strains analyzed exhibited increased sensitivity"}]}
{"smiles": "CC(C)C[C@@H](C=O)NC(=O)[C@H](CC(C)C)NC(=O)[C@H](CC(C)C)NC(=O)OCc1ccccc1", "note": "[MG 132] (Cbz-Leu-Leu-Leu-aldehyde)", "values": [{"measurement": "proliferation of aneuploid strains (ability to form colonies on plates containing the drug)", "setting": "aneuploid yeast strains; disomes IV, XII, XIII, XIV and XVI, PDR5 deleted, concentrations that wild-type cells grow at, FIG. 4F", "value": "inhibited"}]}
